Measurements as given in article PMC13110364, “Design, Synthesis, and Biological Evaluation of Novel Triazine‐Based Dual Histone Deacetylase/phosphatidylinositol 3‐kinase Inhibitors for Breast Cancer Therapy” (Chemmedchem, 2026).

How the values were obtained:
LY2 breast cancer cells = test: MTS cell viability assay, LY2; type: cell-based; conditions: 72 h treatment
Description: (§1) The cell viability effects of compounds 5a–5f were assessed in LY2, JIMT1, and MDA‐MB‐231 breast cancer cell lines using the 3‐(4,5‐dimethylthiazol‐2‐yl)‐5‐(3‐carboxymethoxyphenyl)‐2‐(4‐sulfophenyl)‐2H‐tetrazolium (MTS) assay. The MTS assay measures metabolic viability and serves as a first‐pass screen.
(§2) JIMT‐1 (DSMZ ACC 589) and MDA‐MB‐231 (ATCC HTB‐26) breast cancer cell lines were maintained in Dulbecco's Modified Eagle Medium (DMEM) High Glucose with L‐glutamine (D5796, Sigma) supplemented with 10% fetal calf serum. MCF7‐derivative LY2 breast cancer cells were previously described (REF: PMID: 33420368). LY2 cells were cultured in phenol red‐free MEM (PRF‐MEM; 51 200‐046, Gibco) supplemented with 10% charcoal dextran‐stripped fetal calf serum (CDS‐FCS; F6765, Merck), 2 mmol/L L‐glutamine (G7513, Merck), and 10^−8 mol/L 4‐hydroxytamoxifen (4‐OHT; H7904, Merck). All cell lines were maintained at 37°C in a humidified incubator with 5% CO2 and regularly authenticated and tested for mycoplasma.
(§3) Cell viability was evaluated in response to increasing concentrations of 5a‐5f (0.3, 1, 3, 10, and 30 μM) or vehicle control (0.1% DMSO). LY2, JIMT1, and MDA‐MB‐231 cells were seeded at a density of 2,500 cells per well in 96‐well plates with a total volume of 100 μL per well. Prior to treatment, cells were serum‐deprived for 24 h. Following serum depletion, cells were treated in complete growth medium for 72 h. Cell viability was assessed using the MTS assay (G1111, Promega) according to the manufacturer's instructions. Absorbance was measured at 495 nm using a BioTek Synergy HTX Multi‐Mode Microplate Reader (Agilent). Results were normalized to the vehicle control (DMSO), and the half‐maximal inhibitory concentration (IC50) of the inhibitors was determined by nonlinear regression (curve fit) using a four‐parameter variable slope model.

[1] = test system: MDA‐MB‐231 triple‐negative breast cancer cell line; test: MTS cell viability assay, MDA-MB-231; type: cell-based; conditions: Homo sapiens, MDA-MB-231, 72 h, MDA‐MB‐231 cells, 72 h treatment
Description: as §1, §2, §3

[2] = test system: JIMT1 breast cancer cells; test: MTS cell viability assay, JIMT1; type: cell-based; conditions: Homo sapiens, JIMT-1, 72 h treatment
Description: as §1, §2, §3

PI3Kα = PI3Kα (Homo sapiens, UniProt P42336); parameters: method as in earlier work; conditions: cited from earlier work
PI3Kα, sequence (P42336 whole entry): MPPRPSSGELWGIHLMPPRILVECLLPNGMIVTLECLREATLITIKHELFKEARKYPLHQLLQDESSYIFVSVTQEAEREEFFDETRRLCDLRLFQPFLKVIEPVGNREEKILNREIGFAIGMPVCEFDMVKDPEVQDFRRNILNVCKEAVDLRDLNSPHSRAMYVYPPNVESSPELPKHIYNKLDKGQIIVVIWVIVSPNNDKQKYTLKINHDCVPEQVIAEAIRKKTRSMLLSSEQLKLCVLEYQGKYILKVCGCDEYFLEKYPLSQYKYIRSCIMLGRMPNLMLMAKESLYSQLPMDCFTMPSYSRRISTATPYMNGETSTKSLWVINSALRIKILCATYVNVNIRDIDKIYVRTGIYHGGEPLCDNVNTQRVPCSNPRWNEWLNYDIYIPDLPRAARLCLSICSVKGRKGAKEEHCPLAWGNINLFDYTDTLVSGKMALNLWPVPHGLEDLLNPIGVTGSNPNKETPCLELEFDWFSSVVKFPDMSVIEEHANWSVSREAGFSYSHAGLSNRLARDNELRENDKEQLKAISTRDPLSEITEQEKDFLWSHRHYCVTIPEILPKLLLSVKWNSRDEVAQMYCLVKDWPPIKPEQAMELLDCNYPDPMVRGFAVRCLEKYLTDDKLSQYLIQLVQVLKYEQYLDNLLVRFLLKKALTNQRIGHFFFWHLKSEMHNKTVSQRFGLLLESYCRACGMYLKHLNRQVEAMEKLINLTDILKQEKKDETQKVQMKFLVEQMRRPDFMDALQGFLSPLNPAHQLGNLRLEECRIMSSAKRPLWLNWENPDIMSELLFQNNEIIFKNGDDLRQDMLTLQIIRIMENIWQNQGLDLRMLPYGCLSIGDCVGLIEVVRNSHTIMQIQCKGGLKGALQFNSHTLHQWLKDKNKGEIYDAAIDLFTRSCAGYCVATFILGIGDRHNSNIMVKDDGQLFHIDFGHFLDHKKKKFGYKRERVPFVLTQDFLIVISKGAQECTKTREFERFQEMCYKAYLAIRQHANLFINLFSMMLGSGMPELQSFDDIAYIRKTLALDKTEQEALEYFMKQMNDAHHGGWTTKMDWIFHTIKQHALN
PI3Kα, sequence (P27986 whole entry partner): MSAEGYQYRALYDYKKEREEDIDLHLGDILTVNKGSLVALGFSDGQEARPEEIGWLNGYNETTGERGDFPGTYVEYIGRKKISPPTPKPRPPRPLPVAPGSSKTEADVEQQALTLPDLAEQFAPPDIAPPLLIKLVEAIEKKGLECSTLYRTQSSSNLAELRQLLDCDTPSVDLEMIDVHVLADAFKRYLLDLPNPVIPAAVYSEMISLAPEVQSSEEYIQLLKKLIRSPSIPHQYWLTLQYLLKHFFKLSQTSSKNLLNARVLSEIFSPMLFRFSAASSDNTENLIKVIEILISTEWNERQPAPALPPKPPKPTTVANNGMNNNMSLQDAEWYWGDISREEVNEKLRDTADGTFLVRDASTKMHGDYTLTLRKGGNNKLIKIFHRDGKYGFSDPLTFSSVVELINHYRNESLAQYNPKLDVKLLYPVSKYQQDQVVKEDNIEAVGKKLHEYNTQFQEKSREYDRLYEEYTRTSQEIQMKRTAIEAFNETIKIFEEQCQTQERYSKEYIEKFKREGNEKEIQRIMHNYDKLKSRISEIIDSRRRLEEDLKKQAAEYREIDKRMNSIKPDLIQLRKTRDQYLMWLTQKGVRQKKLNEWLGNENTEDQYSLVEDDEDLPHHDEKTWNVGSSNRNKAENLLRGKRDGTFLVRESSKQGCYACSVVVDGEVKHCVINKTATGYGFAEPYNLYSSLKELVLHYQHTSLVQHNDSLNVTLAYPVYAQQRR

HDAC = test system: HDAC; parameters: method as in earlier work; conditions: cited from earlier work
HDAC4 = HDAC4 (Homo sapiens, UniProt P56524); parameters: method as in PMID 32022441; conditions: cited from earlier work
HDAC4, sequence (P56524 whole entry): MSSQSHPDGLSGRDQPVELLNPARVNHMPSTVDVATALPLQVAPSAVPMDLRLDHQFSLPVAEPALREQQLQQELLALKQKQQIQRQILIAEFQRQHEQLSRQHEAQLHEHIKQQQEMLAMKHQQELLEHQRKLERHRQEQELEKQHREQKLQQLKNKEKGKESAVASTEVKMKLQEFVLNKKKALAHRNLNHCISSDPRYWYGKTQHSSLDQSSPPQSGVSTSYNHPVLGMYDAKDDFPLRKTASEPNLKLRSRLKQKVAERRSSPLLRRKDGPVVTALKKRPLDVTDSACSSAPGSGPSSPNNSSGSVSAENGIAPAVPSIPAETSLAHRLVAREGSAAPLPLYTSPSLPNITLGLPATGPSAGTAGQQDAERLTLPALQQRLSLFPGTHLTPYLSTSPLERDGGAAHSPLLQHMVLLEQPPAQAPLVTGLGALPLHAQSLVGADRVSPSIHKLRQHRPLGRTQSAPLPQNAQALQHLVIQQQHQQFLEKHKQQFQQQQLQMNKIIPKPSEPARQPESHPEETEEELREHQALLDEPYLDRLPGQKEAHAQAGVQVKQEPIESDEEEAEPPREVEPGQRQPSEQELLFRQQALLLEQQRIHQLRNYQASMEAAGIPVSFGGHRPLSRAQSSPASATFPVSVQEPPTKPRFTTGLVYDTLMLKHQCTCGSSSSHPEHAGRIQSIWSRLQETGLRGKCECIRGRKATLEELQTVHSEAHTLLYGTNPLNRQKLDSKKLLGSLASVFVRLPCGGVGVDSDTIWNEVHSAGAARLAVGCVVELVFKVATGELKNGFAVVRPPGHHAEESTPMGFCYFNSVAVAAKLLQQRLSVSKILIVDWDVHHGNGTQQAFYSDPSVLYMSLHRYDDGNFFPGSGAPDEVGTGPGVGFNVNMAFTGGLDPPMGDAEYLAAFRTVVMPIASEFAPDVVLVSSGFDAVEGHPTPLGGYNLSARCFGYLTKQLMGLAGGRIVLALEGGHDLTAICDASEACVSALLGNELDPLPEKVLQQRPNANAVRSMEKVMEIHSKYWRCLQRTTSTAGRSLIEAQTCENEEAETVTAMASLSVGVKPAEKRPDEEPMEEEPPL

[3] = parameters: method as in PMID 32022441; conditions: previous studies of the authors ref 25; cited from earlier work
HDAC1 = HDAC1 (Homo sapiens, UniProt Q13547); parameters: method as in PMID 32022441; conditions: cited from earlier work
HDAC1, sequence (Q13547 whole entry): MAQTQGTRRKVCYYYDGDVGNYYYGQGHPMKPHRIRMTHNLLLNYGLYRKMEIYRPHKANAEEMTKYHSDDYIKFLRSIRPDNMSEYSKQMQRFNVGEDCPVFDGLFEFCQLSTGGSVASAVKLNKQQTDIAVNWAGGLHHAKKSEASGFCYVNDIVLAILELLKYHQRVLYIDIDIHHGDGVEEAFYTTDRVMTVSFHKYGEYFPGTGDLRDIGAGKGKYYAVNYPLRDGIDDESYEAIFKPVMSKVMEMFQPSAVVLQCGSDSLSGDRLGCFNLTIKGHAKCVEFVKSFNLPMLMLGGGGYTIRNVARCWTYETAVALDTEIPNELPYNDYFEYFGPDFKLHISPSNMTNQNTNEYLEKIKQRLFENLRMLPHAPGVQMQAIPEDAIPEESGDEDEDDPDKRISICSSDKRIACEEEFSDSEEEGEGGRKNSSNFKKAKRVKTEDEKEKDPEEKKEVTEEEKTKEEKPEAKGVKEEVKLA

HDAC2 = test system: HDAC2; parameters: method as in PMID 22693356; conditions: cited from earlier work
HDAC9 = test system: HDAC9; parameters: method as in PMID 22693356; conditions: cited from earlier work
MCF‐10A cells = test: Cell viability in nontransformed cell line MCF-10A; type: cell-based; conditions: Homo sapiens
From the text: Thus, further optimization will be required to improve the therapeutic index.
FIGURE 5 Dose‐dependent effects of compound treatment (5b and 5f) on nontransformed breast cell viability across MCF‐10A.

HDAC5 = test system: HDAC5; parameters: method as in PMID 22693356; conditions: cited from earlier work

| SMILES | IC50 (LY2 breast cancer cells) [µM] | IC50 [1] [µM] | IC50 [2] [µM] | other results |
| --- | --- | --- | --- | --- |
| Nc1ncc(-c2nc(NCc3ccc(C(=O)NO)cc3)nc(N3CCOCC3)n2)cn1 [Compound 5e, 4‐(((4‐(2‐Aminopyrimidin‐5‐yl)‐6‐Morpholino‐1,3,5‐Triazin‐2‐yl)Amino)Methyl)‐N‐Hydroxybenzamide] | 8.84 ± 3.47 | 10.4 | 15.6 ± 6.48 | – |
| CNc1ccc(-c2nc(N3CCOCC3)c3sc(CN(C)c4ncc(C(=O)NO)cn4)cc3n2)cn1 [Ifupinostat, ifupinostat] | – | – | – | IC50 (PI3Kα): < 0.1 µM; IC50 (HDAC): 0.1 to 1 µM |
| O=C(NO)c1ccc(CNc2nc(-c3cccnc3)nc(N3CCOCC3)n2)cc1 [Compound 5c, N‐Hydroxy‐4‐(((4‐Morpholino‐6‐(pyridin‐3‐yl)−1,3,5‐Triazin‐2‐yl)Amino)Methyl)Benzamide] | 10 | 9.43 | 10.5 | – |
| O=C(NO)c1ccc(/C=N/NC(=O)c2cc(N3CCOCC3)nc(-c3cccc(O)c3)n2)cc1 [LASSBio-2208] | – | – | – | IC50 (HDAC4): > 3 µM; stability of the NAH motif [3]: acid‐labile; IC50 (HDAC1): > 3 µM |
| COc1ccc(-c2nc(N3CCOCC3)c3sc(CN(C)c4ncc(C(=O)NO)cn4)cc3n2)cn1 [Fimepinostat, fimepinostat, reference compound] | < 0.3 | < 0.3 | < 0.3 | IC50 (HDAC2): […]; IC50 (HDAC9): […]; IC50 (MCF‐10A cells): < 0.3 µM; IC50 (HDAC5): […] |
| Nc1ccc(-c2nc(NCc3ccc(C(=O)NO)cc3)nc(N3CCOCC3)n2)cn1 [Compound 5d, 4‐(((4‐(6‐Aminopyridin‐3‐yl)‐6‐Morpholino‐1,3,5‐Triazin‐2‐yl)Amino)Methyl)‐N‐Hydroxybenzamide] | 10.3 ± 3 | 13.1 ± 6.08 | 8.97 ± 2.64 | – |
| O=C(NO)c1ccc(CNc2nc(-c3ccccc3)nc(N3CCOCC3)n2)cc1 [Compound 5a, N‐Hydroxy‐4‐(((4‐Morpholino‐6‐Phenyl‐1,3,5‐Triazin‐2‐yl)Amino)Methyl)Benzamide] | 10.9 | 5.8 ± 0.6 | 8.58 ± 0.14 | – |
